Measurements from patent US20160129005A1, “ADENINE DERIVATIVES HAVING IMMUNOMODULATING ANTI-INFLAMMATORY AND ANALGESIC ACTIVITY” (MEDESTEA RESEARCH & PRODUCTION S.p.A., priority 2011, published 2016).

Columns and labels:
[1] = system: C57BL/6 mice transplanted with BALB/c hearts; test: Murine heterotopic heart transplant model; type: in vivo, mouse; settings: Rapamycin alone 0.1 mg/kg day 0 to day 10; n=5; Ctrl MST=7
Experimental: The immunosuppressive potential of […] was tested on a heterotopic heart transplant model; hearts of BALB/c mice were transplanted into the abdominal cavity of C57BL/6 mice.
The beats of the heart were measured, twice weekly, by palpation; stopping of beating was regarded as a sign of transplant rejection.
Three different protocols were used for prolonging transplant survival times: the “short-term” protocol ([…] 9 mg/kg daily for 14 days), the “long-term” protocol ([…] 9 mg/kg every day until rejection), and the “Combo” protocol ([…] on alternate days: day 0, 2, 4, 6, 8, 10, 12, 14+Rapamycin 0.1 mg/kg from day 0 to day 10).
In the acute heart transplant models, the hearts of BALB/c were transplanted into the peritoneal cavity of C57BL/6 mice. The control mice invariably reject the transplant in 10 days (Ctrl: MST=7 days, n=12), (FIG. 26). The “short-term” protocol permitted indefinite survival (100 days) in 10 mice out of 12 (n=12; p=0.0001 vs. Ctrl), (FIG. 26). Similarly, the “long-term” protocol permitted indefinite survival in 8 mice out of 10 (n=10; p=0.002 vs Ctrl), and prolonged survival in the remaining 2 (16 days and 25 days; p=0.002 vs. Ctrl), (FIG. 26).
The histological sections of the hearts on day 7 of BALB/c mice, transplanted into a C57BL/6 host, and treated with the “short-term” protocol, were also analysed.

Swiss CD1 mice = test: CFA thermal hyperalgesia, synergy with opioids
Experimental: We compared the activity of […] with that of the opioids to study its analgesic effect.
Mice of the Swiss CD1 type were given a single intraplantar injection of 30 microlitres of complete Freund adjuvant (CFA) in the right plantar pad. Intraperitoneal injection of […] and/or of morphine (morphine chlorhydrate, Molteni) was administered 24 hours after injection of CFA according to the following scheme:
1. […] 7.5 mg/kg; 2. […] 10 mg/kg; 3. […] 200 mg/kg; 4. […] 50 mg/kg; 5. Morphine 0.4 mg/kg; 6. Morphine 2.5 mg/kg; 7. Morphine 1 mg/kg; 8. Morphine 0.4 mg/kg; 9. Morphine 1 mg/kg+[…] 10 mg/kg; 10. Morphine 0.4 mg/kg+[…] 10 mg/kg; 11. Morphine 1 mg/kg+[…] 10 mg/kg; 12. Morphine 0.4 mg/kg+[…] 10 mg/kg; 13. Morphine 4 mg/kg.
Groups 9-11 and 10-12 have the same doses respectively; they were repeated to confirm the results.
Thermal hyperalgesia was assessed using the Ugo Basile apparatus (Comerio, Italy).
The test was carried out before (baseline values) injection of CFA, after injection of CFA and 0.5, 1, 2, 3, 6 and 12 hours after injecting the drug in the inflamed pad.

Row | Structure (SMILES) | MST (mean survival time) [1] [days] | obsessive-compulsive disorders (behaviour) (Swiss CD1 mice; morphine 2.5 mg/kg or higher doses) | activity on nociception (Swiss CD1 mice; morphine alone i.p. at the highest dose)
1 | CO[C@H]1C[C@@H]2CC[C@@H](C)[C@@](O)(O2)C(=O)C(=O)N2CCCC[C@H]2C(=O)O[C@H]([C@H](C)C[C@@H]2CC[C@@H](O)[C@H](OC)C2)CC(=O)[C@H](C)/C=C(\C)[C@@H](O)[C@@H](OC)C(=O)[C@H](C)C[C@H](C)/C=C/C=C/C=C/1C [Rapamycin, reference compound] | 25 |  | 
2 | CN1CC[C@]23c4c5ccc(O)c4O[C@H]2[C@@H](O)C=C[C@H]3[C@H]1C5 [morphine, morphine chlorhydrate, reference compound] |  | displayed obsessive-compulsive disorders | anaesthetic-like
